Reference: publication PMC8592419 (PLoS ONE, 2021)
≈ marks a conversion by molar mass, not a printed value. Where a SMILES comes first, the peptide text is derived from it.

Legend:
[1] = tested on: M. abscessus clinical isolate MAB01; experiment: In vitro susceptibility testing (DST), CLSI broth microdilution; format: cell-based, M. abscessus subsp. abscessus; design: key to DST profile, interpretation, Day 3 / DST profile, interpretation, Day 5 / DST profile, interpretation, Day 14: S, susceptible; I, intermediate; R, resistant
Procedure: (§1) Drug susceptibility testing (DST) was performed according to the Clinical and Laboratory Standards Institute (CLSI) guidelines M24-A2 [42] using the broth microdilution method to determine the minimum inhibitory concentration (MIC). […] Colonies were grown at an adjusted cell density to a 0.5 McFarland standard and further diluted to 5×10^5 CFU/ml. […] These were then incubated at 37°C for 3, 5 and 14 days. The MIC was defined as the concentration in which no visible growth was observed. The results were interpreted according to the guidelines of CLSI. Inducible resistance was inferred by changes in MIC values from being susceptible at day 3 to resistant at day 14.

[2] = tested on: M. abscessus clinical isolate MAB02; experiment: as above; format: cell-based, M. abscessus subsp. abscessus; design: key to DST profile, interpretation, Day 3 / DST profile, interpretation, Day 5 / DST profile, interpretation, Day 14: S, susceptible; I, intermediate; R, resistant
Procedure: as §1

[3] = tested on: M. abscessus clinical isolate MAB03; experiment: as above; format: cell-based, M. abscessus subsp. abscessus; design: key to DST profile, interpretation, Day 3 / DST profile, interpretation, Day 5 / DST profile, interpretation, Day 14: S, susceptible; I, intermediate; R, resistant
Procedure: as §1

[4] = tested on: M. abscessus clinical isolate MAB04; experiment: as above; format: cell-based, M. abscessus subsp. abscessus; design: key to DST profile, interpretation, Day 3 / DST profile, interpretation, Day 5 / DST profile, interpretation, Day 14: S, susceptible; I, intermediate; R, resistant
Procedure: as §1

[5] = tested on: M. abscessus clinical isolate MAB05; experiment: as above; format: cell-based, M. abscessus subsp. abscessus; design: key to DST profile, interpretation, Day 3 / DST profile, interpretation, Day 5 / DST profile, interpretation, Day 14: S, susceptible; I, intermediate; R, resistant
Procedure: as §1

[6] = tested on: M. abscessus clinical isolate MAB06; experiment: as above; format: cell-based, M. abscessus subsp. abscessus; design: key to DST profile, interpretation, Day 3 / DST profile, interpretation, Day 5 / DST profile, interpretation, Day 14: S, susceptible; I, intermediate; R, resistant
Procedure: as §1

[7] = tested on: M. abscessus clinical isolate MAB07; experiment: as above; format: cell-based, M. abscessus subsp. abscessus; design: key to DST profile, interpretation, Day 3 / DST profile, interpretation, Day 5 / DST profile, interpretation, Day 14: S, susceptible; I, intermediate; R, resistant
Procedure: as §1

[8] = tested on: M. abscessus clinical isolate MAB08; experiment: as above; format: cell-based, M. abscessus subsp. abscessus; design: key to DST profile, interpretation, Day 3 / DST profile, interpretation, Day 5 / DST profile, interpretation, Day 14: S, susceptible; I, intermediate; R, resistant
Procedure: as §1

[9] = tested on: M. abscessus clinical isolate MAB09; experiment: as above; format: cell-based, M. abscessus subsp. abscessus; design: key to DST profile, interpretation, Day 3 / DST profile, interpretation, Day 5 / DST profile, interpretation, Day 14: S, susceptible; I, intermediate; R, resistant
Procedure: as §1

[10] = tested on: M. abscessus clinical isolate MAB10; experiment: as above; format: cell-based, M. abscessus subsp. abscessus; design: key to DST profile, interpretation, Day 3 / DST profile, interpretation, Day 5 / DST profile, interpretation, Day 14: S, susceptible; I, intermediate; R, resistant
Procedure: as §1

[11] = tested on: M. abscessus clinical isolate MAB11; experiment: as above; format: cell-based, M. abscessus subsp. abscessus; design: key to DST profile, interpretation, Day 3 / DST profile, interpretation, Day 5 / DST profile, interpretation, Day 14: S, susceptible; I, intermediate; R, resistant
Procedure: as §1

[12] = tested on: M. abscessus clinical isolate MAB12; experiment: as above; format: cell-based, M. abscessus subsp. massiliense; design: key to DST profile, interpretation, Day 3 / DST profile, interpretation, Day 5 / DST profile, interpretation, Day 14: S, susceptible; I, intermediate; R, resistant
Procedure: as §1

[13] = tested on: M. abscessus clinical isolate MAB13; experiment: as above; format: cell-based, M. abscessus subsp. massiliense; design: key to DST profile, interpretation, Day 3 / DST profile, interpretation, Day 5 / DST profile, interpretation, Day 14: S, susceptible; I, intermediate; R, resistant
Procedure: as §1

[14] = tested on: M. abscessus clinical isolate MAB14; experiment: as above; format: cell-based, M. abscessus subsp. massiliense; design: key to DST profile, interpretation, Day 3 / DST profile, interpretation, Day 5 / DST profile, interpretation, Day 14: S, susceptible; I, intermediate; R, resistant
Procedure: as §1

[15] = tested on: M. abscessus clinical isolate MAB15; experiment: as above; format: cell-based, M. abscessus subsp. massiliense; design: key to DST profile, interpretation, Day 3 / DST profile, interpretation, Day 5 / DST profile, interpretation, Day 14: S, susceptible; I, intermediate; R, resistant
Procedure: as §1

[16] = tested on: M. abscessus clinical isolate MAB16; experiment: as above; format: cell-based, M. abscessus subsp. massiliense; design: key to DST profile, interpretation, Day 3 / DST profile, interpretation, Day 5 / DST profile, interpretation, Day 14: S, susceptible; I, intermediate; R, resistant
Procedure: as §1

[17] = tested on: Mab ATCC19977 strain; format: cell-based, Mycobacterium abscessus
Procedure: Briefly, serial dilutions of the AMPs were prepared with potassium phosphate buffer (PPB) from the concentration range of 3.125 to 400 μg/ml and then 50 μl of each dilution were added to each 96-well plate. Colonies of the isolate were suspended and then further diluted in Mueller-Hinton broth to obtain a final concentration of 1×10^3 CFU/ml (optimized according to the available AMP stock concentration). Fifty microliters of this inoculum were added to each well of the plates. The plates were incubated for 3 days at 37°C. Plain media and bacterial suspensions without AMPs were used as negative and positive controls. The MIC values were read and recorded. All assays were performed in duplicate and two independent experiments.

[18] = not given; remark: listed apart in the source
[19] = Mycobacteroides abscessus, 120 h, day 5, read-out: DST profile, MIC value, Day 5

For `NCC[C@H](O)C(=O)N[C@@H]1C[C@H](N)[C@@H](O[C@H]2O[C@H](CN)[C@@H](O)[C@H](O)[C@H]2O)[C@H](O)[C@H]1O[C@H]1O[C@H](CO)[C@@H](O)[C@H](N)[C@H]1O` [AMK, Amikacin], the MIC [1, 19] was 64 µg/mL (≈ 109 µM), the “DST profile, interpretation, Day 5” value ([1]; day 5, CLSI interpretation) was “R” and the MIC [2, 19] was 8 µg/mL (≈ 13.7 µM). The “DST profile, interpretation, Day 5” value ([2]; day 5, CLSI interpretation) was “S”, the MIC [3, 19] was 4 µg/mL (≈ 6.83 µM) and the “DST profile, interpretation, Day 5” value ([3]; day 5, CLSI interpretation) was “S”. The MIC [4, 19] was 8 µg/mL (≈ 13.7 µM), the “DST profile, interpretation, Day 5” value ([4]; day 5, CLSI interpretation) was “S” and the MIC [5, 19] was 32 µg/mL (≈ 54.6 µM). The “DST profile, interpretation, Day 5” value ([5]; day 5, CLSI interpretation) was “I”, the MIC [6, 19] was 8 µg/mL (≈ 13.7 µM) and the “DST profile, interpretation, Day 5” value ([6]; day 5, CLSI interpretation) was “S”. The MIC [7, 19] was 8 µg/mL (≈ 13.7 µM), the “DST profile, interpretation, Day 5” value ([7]; day 5, CLSI interpretation) was “S” and the MIC [8, 19] was 8 µg/mL (≈ 13.7 µM). The “DST profile, interpretation, Day 5” value ([8]; day 5, CLSI interpretation) was “S”, the MIC [9, 19] was 8 µg/mL (≈ 13.7 µM) and the “DST profile, interpretation, Day 5” value ([9]; day 5, CLSI interpretation) was “S”. The MIC [10, 19] was 64 µg/mL (≈ 109 µM), the “DST profile, interpretation, Day 5” value ([10]; day 5, CLSI interpretation) was “R” and the MIC [11, 19] was 16 µg/mL (≈ 27.3 µM). The “DST profile, interpretation, Day 5” value ([11]; day 5, CLSI interpretation) was “S”, the MIC [12, 19] was 8 µg/mL (≈ 13.7 µM) and the “DST profile, interpretation, Day 5” value ([12]; day 5, CLSI interpretation) was “S”. For the same compound, the MIC [13, 19] was 8 µg/mL (≈ 13.7 µM), the “DST profile, interpretation, Day 5” value ([13]; day 5, CLSI interpretation) was “S” and the MIC [14, 19] was 64 µg/mL (≈ 109 µM). For the same compound, the “DST profile, interpretation, Day 5” value ([14]; day 5, CLSI interpretation) was “R”, the MIC [15, 19] was 8 µg/mL (≈ 13.7 µM) and the “DST profile, interpretation, Day 5” value ([15]; day 5, CLSI interpretation) was “S”. The MIC [16, 19] was 32 µg/mL (≈ 54.6 µM) and the “DST profile, interpretation, Day 5” value ([16]; day 5, CLSI interpretation) was “I”.

With `CC(C)C[C@H](NC(=O)[C@H](CCCCN)NC(=O)[C@H](CC(C)C)NC(=O)[C@@H](N)CC(C)C)C(=O)N[C@@H](Cc1ccccc1)C(=O)N[C@@H](Cc1ccccc1)C(=O)N1CCC[C@H]1C(=O)N[C@@H](Cc1ccccc1)C(=O)N[C@@H](CC(C)C)C(=O)N[C@@H](CCC(=O)O)C(=O)N[C@H](C(=O)NCC(=O)N[C@@H](CCC(=O)O)C(=O)O)[C@@H](C)O` [Pug-1] (H-LLKLFFPFLETGE-OH) the MIC values [17] was greater than 400 µg/mL.

With `CC(C)[C@H](NC(=O)[C@@H](NC(=O)[C@H](CO)NC(=O)CNC(=O)[C@@H](NC(=O)[C@H](C)NC(=O)CN)C(C)C)C(C)C)C(=O)O` [Pug-2] (H-GAVGSVV-OH) the MIC values [17] was greater than 400 µg/mL.

Compound `CC(C)C[C@H](N)C(=O)NCC(=O)N[C@H](C(=O)N[C@@H](Cc1ccc(O)cc1)C(=O)O)[C@@H](C)O` [Pug-3] (H-LGTY-OH) has an MIC values [17] greater than 400 µg/mL.

Work on `CC(C)C[C@H](NC(=O)[C@H](Cc1ccccc1)NC(=O)[C@H](CO)NC(=O)[C@@H]1CCCN1C(=O)[C@@H](N)Cc1ccccc1)C(=O)N[C@H](C(=O)NCC(=O)N[C@@H](CCCNC(=N)N)C(=O)O)C(C)C` [Pug-4] (H-FPSFLVGR-OH) yielded an MIC values [17] greater than 400 µg/mL.

Work on `CC[C@H](C)[C@H](NC(=O)[C@H](CCCCN)NC(=O)[C@H](CCCNC(=N)N)NC(=O)CNC(=O)[C@H](CC(C)C)NC(=O)[C@H](CO)NC(=O)[C@H](CCCNC(=N)N)NC(=O)[C@H](CC(C)C)NC(=O)CNC(=O)CN)C(=O)N[C@@H](CC(C)C)C(=O)N[C@@H](CCCNC(=N)N)C(=O)N[C@@H](C)C(=O)N[C@@H](Cc1c[nH]c2ccccc12)C(=O)N[C@@H](CCCCN)C(=O)N[C@@H](CCCCN)C(=O)O` [S62] (H-GGLRSLGRKILRAWKK-OH) yielded an MIC values [17] of 200 µg/mL (≈ 109 µM), an MIC after 3 days, MAB01 and MAB03 of less than 50 µg/mL and an MIC within 24 h, majority of isolates (10/16) [18] of less than 50 µg/mL.
